Laboratory results taken from patent US9045474B2, “Compounds and compositions for mitigating tissue damage and lethality” (The Regents of the University of California, priority 2010, dated 2015).

Key:
[1] = test system: RS112 strain of S. cerevisiae; test: Classical DEL plating assay, radioprotection at 2000Gy irradiation; type: cell-based, Saccharomyces cerevisiae
Procedure: All DEL assays utilize the established methodology of “recombination” (deletion of the interruption segment and consequent end joining of the adjacent sequences) of a disrupted histidine gene that renders yeast cells exposed to radiation capable of growing on media lacking this amino acid. In the classical DEL assay radiation sensitive RS112 strain of S. cerevisiae is added to the compounds of interest suspended in complete media, incubated for 2 hrs, and irradiated at 2000Gy. The cells are then plated onto full (+13) and lacking histidine (−His) agar plates. After incubation the colonies are scored and recombination events are calculated. The efficacy of the compound is evaluated as a reduced fraction of DEL recombinations in comparison to that of irradiated controls without treatment. Radioprotectors decrease the frequency of such recombination frequencies after radiation exposure.
A plasmid with an internal fragment of the HIS3 gene, which is responsible for histidine synthesis in yeast, without which cells cannot survive in media lacking histidine, has been integrated at the HIS3 locus, yielding an integrative disruption of the HIS3 gene (Schiestl, R. H., et al., Genetics, 1988. 119(2): p. 237-47). […]

DBA/2 Mice = test: Radiation-induced leukemia model; type: in vivo, mouse
Procedure: DBA/2 Mice (15/group) were irradiated with ^60Co (3.5 Gy, 0.6 Gy/min) to induce leukemia. One group received no drug, another group of mice were injected s.c. with Yel001 or Yel002 (25 mg/kg) with 5 injections for 5 days. Leukemogenesis was monitored for 90 days. Blood was drawn at days −1, 21, 42, and 63 to monitor for leukemia every 21 days to monitor for leukemia development using WBCs and differentials. This leukemia model takes advantage of non-targeted radiation effects, which are important to the carcinogenic process. This model has a shorter latency period to gamma radiation-induced leukemia (latency to 50% leukemic population: 107 days) than other murine leukemia models such as CBA mouse (399 days: 50% leukemic population). DBA/2 mice were irradiated with 3.5 Gy (^60Co 0.60 Gy/min) and then injected intravenously with (5×10^6) FDC-P1 cells. Animals were then monitored 5×/weekly for 10 weeks-post-injection and then daily after 10 weeks-post-injection until leukemia development and/or euthanasia. After the animal has been determined to be leukemic using hematological parameters, it is euthanized and a necropsy is conducted to definitively determine a conclusive diagnosis of leukemia. Control animals not developing leukemia are assessed at 270 days post experiment initiation. At that time they are euthanized and necropsied.

## COc1ccc2cc(-c3nc4ccc(C)cn4c3NCc3ccco3)c(=O)[nH]c2c1 [Yel002]
[1]
  radioprotector characteristics (genotoxicity and cytotoxicity protection): radioprotector characteristics
DBA/2 Mice; 3.5 Gy, 25 mg/kg s.c., no drug also within 42 days
  first development of leukemia: 42 days
DBA/2 Mice; Day 94, 3.5 Gy, 25 mg/kg s.c. 5 injections, irradiated controls 30%
  mice exhibiting leukemia: 10%
DBA/2 Mice; Day 270, irradiated population 90%
  leukemia frequency: 40%
DBA/2 Mice; FIG. 17
  latency to leukemia development: increased latency to leukemia development
DBA/2 Mice; FIG. 18
  frequency of radiation induced and/or spontaneous cancer: effective for reducing the frequency of radiation induced and spontaneous cancer
